From patent US20240409536A1, “COMPOUNDS AND METHODS FOR MODULATING SPLICING” (REMIX THERAPEUTICS INC., priority 2021, published 2024)
Where a name gives a salt, the structure may show the parent alone.

Columns and labels:
Target C mRNA = assay: Gene panel canonical junction qPCR assay, Target C CJ mRNA decrease; type: cell-based; conditions: Homo sapiens, canonical junction qPCR, read-out: Target C IC50 (decrease in CJ mRNA levels)
How it was run: (§1)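 A673 or K562 cells treated with compound; canonical exon-exon junction mRNA quantified by cDNA synthesis and RT-qPCR with junction-spanning primer/probe, normalized to GAPDH, GUSB or PPIA and DMSO (2^(−ΔΔCt)). Percent response from set ΔCt assay windows fitted to 4-parameter logistic; IC50 for CJ decrease.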

K562 cells = assay: Cell Titer Glo 2.0 cell viability assay in K562 cells; conditions: 72 hours
Experimental: Compounds described herein were screened for toxicity in K562 (human chronic myelogenous leukemia) and SH-SY5Y (human neuroblastoma) cells using a Cell Titer Glo 2.0 assay.
Cells were plated at 500 cells/well (K562 cells) in 45 μL of IMDM supplemented with 10% FBS in a 384-well opaque plate. Wells containing only medium were used as a blank control. Test compounds (e.g., compounds of Formula (I), (II), or (III)) were first serially diluted in DMSO then diluted 1:100 with IMDM+10% FBS. The final concentration of DMSO was 0.1% in each well. The cells were incubated for 72 hours at 37° C. and 5% CO2 before assaying with Cell Titer Glo 2.0 reagent.

HTT mRNA = assay: Splicing RT-qPCR assay, HTT canonical (CJ) and alternative (AJ) junction mRNA; type: cell-based; conditions: Homo sapiens, A673 or K562 cells, 24 hours; for IC50: decrease in canonical junction mRNA; for AC50: increase in alternative junction mRNA
How it was run: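 RT-qPCR read-out: CJ and AJ junction isoforms quantified from cell lysates, normalized to housekeeping GAPDH/GUSB (K562) or PPIA (A673). Cells had 24 h compound exposure, 11-point 3-fold series from 10 uM final, ≤0.25% DMSO.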

MYB mRNA = assay: Gene panel canonical junction qPCR assay, MYB CJ mRNA decrease; type: cell-based, human; conditions: Homo sapiens, canonical junction qPCR, read-out: MYB IC50 (decrease in CJ mRNA levels)
How it was run: as §1

IC50 (Target C mRNA) [nM] | IC50 (HTT mRNA) [nM] | IC50 (MYB mRNA) [nM] | Compound | Viability (K562 cells) | AC50 (HTT mRNA) [nM]
> 10000 | 1000 to 10000 | 100 to 1000 | Cc1cnc2c(N3CCNCC3)ccc(C(=O)Nc3cc(F)c4nc(C)cn4c3)c2n1 [Compound 197, N-{8-fluoro-2-methylimidazo[1,2-a]pyridin-6-yl}-3-methyl-8-(piperazin-1-yl)quinoxaline-5-carboxamide; trifluoroacetic acid] | C (C represents 1000-9999 nM) | 1000 to 10000
> 10000 | 100 to 1000 | < 100 | Cc1cn2cc(NC(=O)c3ccc(N4CCN[C@H](C)C4)c4ccnnc34)cc(F)c2n1 [Compound 146] | A (A represents <100 nM) | 100 to 1000
1000 to 10000 | 1000 to 10000 | < 100 | Cc1ccc2c(N3CCNCC3)ccc(C(=O)Nc3cc(F)c4nc(C)cn4c3)c2n1 [Compound 162, N-{8-fluoro-2-methylimidazo[1,2-a]pyridin-6-yl}-2-methyl-5-(piperazin-1-yl)quinoline-8-carboxam-ide, trifluoroacetic acid] | B (B represents 100-1000 nM) | 1000 to 10000
1000 to 10000 | 100 to 1000 | 100 to 1000 | Cc1ccc2c(N3CCC(N(C)C)CC3)ccc(C(=O)Nc3cc(F)c4nc(C)cn4c3)c2n1 [Compound 215, 5-[4-(dimethylamino)piperidin-1-yl]-N-{8-fluoro-2-methylimidazo[1,2-a]pyridin-6-yl}-2-methylquinoline-8-carboxamide] | B (B represents 100-1000 nM) | 1000 to 10000
> 10000 | 1000 to 10000 | 100 to 1000 | Cc1cn2cc(NC(=O)c3ccc(N4CCNCC4)c4ccnnc34)cc(C#N)c2n1 [Compound 167, N-{8-cyano-2-methylimidazo[1,2-a]pyridin-6-yl}-5-(piperazin-1-yl)cinnoline-8-carboxamide trifluoroacetic acid salt] | B (B represents 100-1000 nM) | > 10000
> 10000 | > 10000 | 1000 to 10000 | CCc1cc(NC(=O)c2ccc(N3CCNCC3)c3ccnnc23)nn2cc(C)nc12 [Compound 168, N-{8-ethyl-2-methylimidazo[1,2-b]pyridazin-6-yl}-5-(piperazin-1-yl)cinnoline-8-carboxamide trifluoroacetic acid salt] | C (C represents 1000-9999 nM) | > 10000
1000 to 10000 | 1000 to 10000 | < 100 | Cc1cn2cc(NC(=O)c3ccc(N4CCN(C)[C@H](C)C4)c4ccnnc34)cc(F)c2n1 [Compound 149] | B (B represents 100-1000 nM) | 1000 to 10000
1000 to 10000 | 1000 to 10000 | < 100 | COc1ccc2c(N3CCNCC3)ccc(C(=O)Nc3cc(F)c4nc(C)cn4c3)c2n1 [Compound 169, N-{8-fluoro-2-methylimidazo[1,2-a]pyridin-6-yl}-2-methoxy-5-(piperazin-1-yl)quinoline-8-carboxamide] | A (A represents <100 nM) | 1000 to 10000
> 10000 | > 10000 | > 10000 | Cc1cn2cc(NC(=O)c3ccc(N4CCNCC4)c4nnccc34)cc(F)c2n1 [Compound 166, N-(8-fluoro-2-methylimidazo[1,2-a]pyridin-6-yl)-8-(piperazin-1-yl)cinnoline-5-carboxamide 2,2,2-trifluoroacetate] | D (D represents greater than 10 μM in K562 cells) | > 10000
1000 to 10000 | 100 to 1000 | < 100 | Cc1cn2cc(NC(=O)c3ccc(N4CCC5(CCN5)CC4)c4nccnc34)cc(F)c2n1 [Compound 189, 8-{1,7-diazaspiro[3.5]nonan-7-yl}-N-{8-fluoro-2-methylimidazo[1,2-a]pyridin-6-yl}quinoxaline-5-carboxamide] | B (B represents 100-1000 nM) | 100 to 1000
100 to 1000 | 100 to 1000 | 100 to 1000 | COc1cnc2c(N3CCC(N(C)C)CC3)ccc(C(=O)Nc3cc(F)c4nc(C)cn4c3)c2n1 [Compound 206, 8-[4-(dimethylamino)piperidin-1-yl]-N-{8-fluoro-2-methylimidazo[1,2-a]pyridin-6-yl}-3-methoxyquinoxaline-5-carboxamide; trifluoroacetic acid] | B (B represents 100-1000 nM) | 100 to 1000

The next lines start with the compound.

Compound | IC50 (Target C mRNA) [nM] | IC50 (HTT mRNA) [nM] | IC50 (MYB mRNA) [nM] | Viability (K562 cells) | AC50 (HTT mRNA) [nM]
Cc1cn2cc(NC(=O)c3ccc(N4CCC(N(C)C)C4)c4ccnnc34)cc(F)c2n1 (centres unmarked) [Compound 134] | 1000 to 10000 | 1000 to 10000 | 100 to 1000 | B (B represents 100-1000 nM) | 1000 to 10000
CNC1CCN(c2ccc(C(=O)Nc3cc(F)c4nc(C)cn4c3)c3nccnc23)C1 (centres unmarked) [Compound 190, N-{8-fluoro-2-methylimidazo[1,2-a]pyridin-6-yl}-8-[3-(methylamino)pyrrolidin-1-yl]quinoxaline-5-carboxamide] | 1000 to 10000 | 1000 to 10000 | 100 to 1000 | A (A represents <100 nM) | 1000 to 10000
Cc1cn2cc(NC(=O)c3ccc(N4CCNCC4)c4ccnnc34)cc(C(C)O)c2n1 (centres unmarked) [Compound 182, N-[8-(1-hydroxyethyl)-2-methylimidazo[1,2-a]pyridin-6-yl]-5-(piperazin-1-yl)cinnoline-8-carboxamide trifluoroacetate] | > 10000 | > 10000 | > 10000 | D (D represents greater than 10 μM in K562 cells) | > 10000
Cc1cn2cc(NC(=O)c3ccc(C4CCNCC4)c4nccnc34)cc(F)c2n1 [Compound 371] | 1000 to 10000 | 100 to 1000 | 100 to 1000 | A (A represents <100 nM) | 100 to 1000
COc1cc(NC(=O)c2ccc(N3CCNCC3)c3ccnnc23)cn2cc(C)nc12 [Compound 176, N-{8-methoxy-2-methylimidazo[1,2-a]pyridin-6-yl}-5-(piperazin-1-yl)cinnoline-8-carboxamide trifluoroacetate] | > 10000 | > 10000 | 100 to 1000 | B (B represents 100-1000 nM) | > 10000
Cc1cn2cc(NC(=O)c3ccc(C4CCN(C)CC4)c4ccnnc34)cc(F)c2n1 [Compound 140] | > 10000 | 1000 to 10000 | 100 to 1000 | B (B represents 100-1000 nM) | 1000 to 10000
Cc1ccc2c(N3C[C@@H](C)N[C@@H](C)C3)ccc(C(=O)Nc3cc(F)c4nc(C)cn4c3)c2n1 [Compound 214, 5-[(3R,5S)-3,5-dimethylpiperazin-1-yl]-N-{8-fluoro-2-methylimidazo[1,2-a]pyridin-6-yl}-2-methylquinoline-8-carboxamide] | 1000 to 10000 | 100 to 1000 | < 100 | B (B represents 100-1000 nM) | 1000 to 10000
CC[C@H]1CN(c2ccc(C(=O)Nc3cc(F)c4nc(C)cn4c3)c3nnccc23)CCN1 [Compound 152] | > 10000 | 1000 to 10000 | 100 to 1000 | B (B represents 100-1000 nM) | 1000 to 10000
CC(=O)c1cc(NC(=O)c2ccc(N3CCNCC3)c3ccnnc23)cn2cc(C)nc12 [Compound 163, N-{8-acetyl-2-methylimidazo[1,2-a]pyridin-6-yl}-5-(piperazin-1-yl)cinnoline-8-carboxamide] | > 10000 | > 10000 | 1000 to 10000 | C (C represents 1000-9999 nM) | > 10000
CCNC1CCN(c2ccc(C(=O)Nc3cc(F)c4nc(C)sc4c3)c3nnccc23)CC1 [Compound 221, 5-[4-(ethylamino)piperidin-1-yl]-N-(4-fluoro-2-methyl-1,3-benzothiazol-6-yl)cinnoline-8-carboxamide] | 1000 to 10000 | 1000 to 10000 | 1000 to 10000 | B (B represents 100-1000 nM) | 1000 to 10000
Cc1cc2c(N3CCNCC3)ccc(C(=O)Nc3cc(F)c4nc(C)cn4c3)c2nn1 [Compound 159] | 1000 to 10000 | 100 to 1000 | < 100 | A (A represents <100 nM) | 100 to 1000
COCCOc1cc2c(N3CCNCC3)ccc(C(=O)Nc3cc(F)c4nc(C)cn4c3)c2nn1 [Compound 199, N-{8-fluoro-2-methylimidazo[1,2-a]pyridin-6-yl}-3-(2-methoxyethoxy)-5-(piperazin-1-yl)cinnoline-8-carboxamide] | > 10000 | > 10000 | 100 to 1000 | B (B represents 100-1000 nM) | > 10000
COc1ncc2c(N3C[C@@H](C)N[C@@H](C)C3)ccc(C(=O)Nc3cn4cc(C)nc4c(OC)n3)c2n1 [Compound 378] | 100 to 1000 | 100 to 1000 | < 100 | A (A represents <100 nM) | 100 to 1000
Cc1c(O)c(NC(=O)c2ccc(N3CCNCC3)c3ccnnc23)cc2cn(C)nc12 [Compound 181, N-(6-hydroxy-2,7-dimethylindazol-5-yl)-5-(piperazin-1-yl)cinnoline-8-carboxamide] | > 10000 | > 10000 | 100 to 1000 | C (C represents 1000-9999 nM) | > 10000
